Assay results from PubChem BioAssay AID1982 (Sanford-Burnham Center for Chemical Genomics, 2009).
Active and inactive are the calls of the source. The rule behind the calls is not given here.

Experiments:
Assay in all cases: kinase panel binding selectivity, selectivity assay, biochemical, KINOMEscan (AID 1982)
[1] = system: CHEK2; conditions: KINOMEscan 353-kinase binding panel, qPCR, at 10 µM, hits give low values
[2] = system: RIPK1; conditions: KINOMEscan 353-kinase binding panel, qPCR, at 10 µM, hits give low values
[3] = target: STE20-like serine/threonine-protein kinase (Homo sapiens) (UniProt Q9H2G2); conditions: KINOMEscan 353-kinase binding panel, qPCR; SLK; at 10 µM; hits give low values
STE20-like serine/threonine-protein kinase (Homo sapiens), sequence (Q9H2G2 whole entry, looked up): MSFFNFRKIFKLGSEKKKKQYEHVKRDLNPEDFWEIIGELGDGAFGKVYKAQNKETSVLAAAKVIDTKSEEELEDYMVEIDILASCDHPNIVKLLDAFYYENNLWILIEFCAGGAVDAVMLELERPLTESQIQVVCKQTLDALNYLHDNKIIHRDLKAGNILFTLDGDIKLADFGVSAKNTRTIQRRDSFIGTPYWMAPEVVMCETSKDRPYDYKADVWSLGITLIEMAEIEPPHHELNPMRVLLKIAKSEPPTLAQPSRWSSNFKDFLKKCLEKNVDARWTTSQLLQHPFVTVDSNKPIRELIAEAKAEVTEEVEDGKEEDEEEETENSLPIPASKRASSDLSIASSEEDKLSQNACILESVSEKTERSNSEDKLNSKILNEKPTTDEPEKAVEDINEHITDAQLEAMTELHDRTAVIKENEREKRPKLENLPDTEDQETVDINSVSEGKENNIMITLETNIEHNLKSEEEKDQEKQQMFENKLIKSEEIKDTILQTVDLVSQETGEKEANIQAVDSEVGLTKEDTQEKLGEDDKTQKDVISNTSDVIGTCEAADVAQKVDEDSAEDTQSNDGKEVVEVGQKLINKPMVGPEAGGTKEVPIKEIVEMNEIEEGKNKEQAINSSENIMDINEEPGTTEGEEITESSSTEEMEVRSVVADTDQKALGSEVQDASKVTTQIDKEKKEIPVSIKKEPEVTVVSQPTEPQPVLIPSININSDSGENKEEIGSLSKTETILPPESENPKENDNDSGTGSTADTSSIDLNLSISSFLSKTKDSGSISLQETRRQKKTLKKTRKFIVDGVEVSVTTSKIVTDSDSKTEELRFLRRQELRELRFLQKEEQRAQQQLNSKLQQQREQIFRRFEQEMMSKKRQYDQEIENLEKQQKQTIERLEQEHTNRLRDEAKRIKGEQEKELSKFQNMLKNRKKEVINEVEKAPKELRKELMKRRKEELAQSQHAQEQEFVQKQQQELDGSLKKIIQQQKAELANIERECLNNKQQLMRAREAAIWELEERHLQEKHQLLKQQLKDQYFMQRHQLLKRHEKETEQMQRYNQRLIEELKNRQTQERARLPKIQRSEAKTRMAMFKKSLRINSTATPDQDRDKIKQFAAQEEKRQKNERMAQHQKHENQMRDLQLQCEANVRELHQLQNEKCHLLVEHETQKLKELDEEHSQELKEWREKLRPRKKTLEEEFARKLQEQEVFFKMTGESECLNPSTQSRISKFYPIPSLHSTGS

[4] = system: TLK2; conditions: KINOMEscan 353-kinase binding panel, qPCR, at 10 µM, hits give low values
[5] = system: GAK; conditions: KINOMEscan 353-kinase binding panel, qPCR, at 10 µM, hits give low values
[6] = target: Serine/threonine-protein kinase TAO1 (Homo sapiens) (UniProt Q7L7X3); conditions: KINOMEscan 353-kinase binding panel, qPCR; TAOK1; at 10 µM; hits give low values
[7] = system: ACVR1; conditions: KINOMEscan 353-kinase binding panel, qPCR, at 10 µM, hits give low values
[8] = system: NEK1; conditions: KINOMEscan 353-kinase binding panel, qPCR, at 10 µM, hits give low values
[9] = target: Serine/threonine-protein kinase 33 (Homo sapiens) (UniProt Q9BYT3); conditions: KINOMEscan 353-kinase binding panel, qPCR; STK33; at 10 µM; hits give low values
Serine/threonine-protein kinase 33 (Homo sapiens), sequence (Q9BYT3 whole entry, looked up): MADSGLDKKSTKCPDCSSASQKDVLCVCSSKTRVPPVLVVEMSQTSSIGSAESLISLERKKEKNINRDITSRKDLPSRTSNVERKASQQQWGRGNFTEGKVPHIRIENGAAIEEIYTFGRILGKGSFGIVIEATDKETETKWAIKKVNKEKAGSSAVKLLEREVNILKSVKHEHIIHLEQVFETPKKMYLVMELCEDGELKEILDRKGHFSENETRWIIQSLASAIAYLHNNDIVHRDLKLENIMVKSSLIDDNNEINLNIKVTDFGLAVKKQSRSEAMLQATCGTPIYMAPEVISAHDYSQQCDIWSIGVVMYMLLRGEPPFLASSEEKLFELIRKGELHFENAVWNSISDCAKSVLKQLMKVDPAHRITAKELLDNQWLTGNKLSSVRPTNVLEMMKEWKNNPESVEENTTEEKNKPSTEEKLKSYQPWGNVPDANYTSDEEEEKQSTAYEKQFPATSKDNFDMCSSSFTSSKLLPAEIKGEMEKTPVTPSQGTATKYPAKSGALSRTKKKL

[10] = system: AMPK-alpha2; conditions: KINOMEscan 353-kinase binding panel, qPCR, at 10 µM, hits give low values
[11] = target: Activated CDC42 kinase 1 (Homo sapiens) (UniProt Q07912); conditions: KINOMEscan 353-kinase binding panel, qPCR; TNK2; at 10 µM; hits give low values
Activated CDC42 kinase 1 (Homo sapiens), sequence (Q07912 whole entry, looked up): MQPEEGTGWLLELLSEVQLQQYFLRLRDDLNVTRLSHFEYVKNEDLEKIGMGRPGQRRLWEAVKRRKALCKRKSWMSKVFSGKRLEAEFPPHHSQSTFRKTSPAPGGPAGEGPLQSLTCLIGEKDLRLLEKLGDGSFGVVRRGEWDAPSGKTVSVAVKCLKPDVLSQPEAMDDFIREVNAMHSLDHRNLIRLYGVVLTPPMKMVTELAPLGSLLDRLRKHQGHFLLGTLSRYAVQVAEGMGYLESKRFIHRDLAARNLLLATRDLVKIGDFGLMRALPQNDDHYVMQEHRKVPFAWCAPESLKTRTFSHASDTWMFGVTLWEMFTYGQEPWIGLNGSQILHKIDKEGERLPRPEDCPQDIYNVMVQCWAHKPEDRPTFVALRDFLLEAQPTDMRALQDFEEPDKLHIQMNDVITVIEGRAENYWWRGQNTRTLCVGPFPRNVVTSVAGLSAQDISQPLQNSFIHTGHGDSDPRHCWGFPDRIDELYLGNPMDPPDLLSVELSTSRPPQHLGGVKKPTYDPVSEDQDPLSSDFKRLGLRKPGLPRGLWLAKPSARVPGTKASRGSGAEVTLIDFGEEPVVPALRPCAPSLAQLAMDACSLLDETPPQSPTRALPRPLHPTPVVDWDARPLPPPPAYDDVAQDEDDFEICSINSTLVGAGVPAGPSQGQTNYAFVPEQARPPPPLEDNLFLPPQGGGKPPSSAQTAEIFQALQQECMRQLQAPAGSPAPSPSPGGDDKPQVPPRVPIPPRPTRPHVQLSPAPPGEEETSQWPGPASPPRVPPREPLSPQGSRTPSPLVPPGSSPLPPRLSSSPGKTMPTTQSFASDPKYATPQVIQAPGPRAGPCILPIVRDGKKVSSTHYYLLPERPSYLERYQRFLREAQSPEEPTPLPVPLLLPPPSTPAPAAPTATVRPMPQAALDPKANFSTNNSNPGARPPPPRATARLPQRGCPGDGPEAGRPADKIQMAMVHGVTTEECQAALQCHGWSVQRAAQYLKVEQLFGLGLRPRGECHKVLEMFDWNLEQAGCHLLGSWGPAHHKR

[12] = system: ULK3; conditions: KINOMEscan 353-kinase binding panel, qPCR, at 10 µM, hits give low values
[13] = target: Mitogen-activated protein kinase 10 (Homo sapiens) (UniProt P53779); conditions: KINOMEscan 353-kinase binding panel, qPCR; JNK3; at 10 µM; hits give low values
[14] = target: Tyrosine-protein kinase Fer (Homo sapiens) (UniProt P16591); conditions: KINOMEscan 353-kinase binding panel, qPCR, at 10 µM, hits give low values
Tyrosine-protein kinase Fer (Homo sapiens), sequence (P16591 whole entry, looked up): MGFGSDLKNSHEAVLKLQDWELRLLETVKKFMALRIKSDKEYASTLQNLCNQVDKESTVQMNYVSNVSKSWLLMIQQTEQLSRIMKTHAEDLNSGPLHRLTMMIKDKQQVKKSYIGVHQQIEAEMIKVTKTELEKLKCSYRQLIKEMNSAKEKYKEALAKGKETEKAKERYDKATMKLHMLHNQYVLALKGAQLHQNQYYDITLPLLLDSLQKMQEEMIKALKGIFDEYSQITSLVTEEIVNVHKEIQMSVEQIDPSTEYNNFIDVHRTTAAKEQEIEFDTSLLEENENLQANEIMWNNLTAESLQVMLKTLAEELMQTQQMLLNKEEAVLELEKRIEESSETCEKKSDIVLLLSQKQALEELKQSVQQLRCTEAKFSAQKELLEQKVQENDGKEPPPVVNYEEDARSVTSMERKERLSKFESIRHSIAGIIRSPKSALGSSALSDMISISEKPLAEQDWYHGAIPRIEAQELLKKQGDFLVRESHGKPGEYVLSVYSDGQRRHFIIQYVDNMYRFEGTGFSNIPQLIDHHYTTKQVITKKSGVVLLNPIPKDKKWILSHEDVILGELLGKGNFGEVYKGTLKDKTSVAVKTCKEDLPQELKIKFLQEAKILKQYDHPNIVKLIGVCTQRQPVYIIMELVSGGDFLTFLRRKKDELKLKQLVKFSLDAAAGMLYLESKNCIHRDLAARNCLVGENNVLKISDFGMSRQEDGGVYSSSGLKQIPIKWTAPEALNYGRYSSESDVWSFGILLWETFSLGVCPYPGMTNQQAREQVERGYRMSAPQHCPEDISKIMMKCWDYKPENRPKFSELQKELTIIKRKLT

[15] = system: PCTK2; conditions: KINOMEscan 353-kinase binding panel, qPCR, at 10 µM, hits give low values
[16] = target: MAP kinase-activated protein kinase 2 (Homo sapiens) (UniProt P49137); conditions: KINOMEscan 353-kinase binding panel, qPCR; MAPKAPK2; at 10 µM; hits give low values
MAP kinase-activated protein kinase 2 (Homo sapiens), sequence (P49137 whole entry, looked up): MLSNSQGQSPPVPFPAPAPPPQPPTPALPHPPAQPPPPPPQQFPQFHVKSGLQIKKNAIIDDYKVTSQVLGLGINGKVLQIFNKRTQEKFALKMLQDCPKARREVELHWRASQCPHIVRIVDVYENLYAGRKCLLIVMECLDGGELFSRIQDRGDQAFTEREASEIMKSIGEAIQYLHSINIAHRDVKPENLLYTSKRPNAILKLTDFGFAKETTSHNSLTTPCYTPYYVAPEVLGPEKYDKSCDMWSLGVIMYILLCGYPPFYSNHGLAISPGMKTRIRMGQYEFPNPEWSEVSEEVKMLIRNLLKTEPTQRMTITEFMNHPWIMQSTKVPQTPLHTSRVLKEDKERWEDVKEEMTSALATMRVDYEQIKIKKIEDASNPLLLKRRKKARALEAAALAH

[17] = system: TXK; conditions: KINOMEscan 353-kinase binding panel, qPCR, at 10 µM, hits give low values
[18] = system: TAOK3; conditions: KINOMEscan 353-kinase binding panel, qPCR, at 10 µM, hits give low values
[19] = system: MEK4; conditions: KINOMEscan 353-kinase binding panel, qPCR, at 10 µM, hits give low values
[20] = system: RPS6KA2(Kin.Dom.1); conditions: KINOMEscan 353-kinase binding panel, qPCR, at 10 µM, hits give low values
[21] = system: TIE2; conditions: KINOMEscan 353-kinase binding panel, qPCR, at 10 µM, hits give low values
[22] = system: ULK1; conditions: KINOMEscan 353-kinase binding panel, qPCR, at 10 µM, hits give low values
[23] = system: TIE1; conditions: KINOMEscan 353-kinase binding panel, qPCR, at 10 µM, hits give low values
[24] = system: RPS6KA6(Kin.Dom.1); conditions: KINOMEscan 353-kinase binding panel, qPCR, at 10 µM, hits give low values
[25] = system: YSK1; conditions: KINOMEscan 353-kinase binding panel, qPCR, at 10 µM, hits give low values
[26] = system: CAMK1G; conditions: KINOMEscan 353-kinase binding panel, qPCR, at 10 µM, hits give low values
[27] = system: LOK; conditions: KINOMEscan 353-kinase binding panel, qPCR, at 10 µM, hits give low values
[28] = target: Tyrosine-protein kinase JAK2 (Homo sapiens) (UniProt O60674); conditions: KINOMEscan 353-kinase binding panel, qPCR; JAK2(Kin.Dom.2); at 10 µM; hits give low values
[29] = system: DAPK2; conditions: KINOMEscan 353-kinase binding panel, qPCR, at 10 µM, hits give low values
[30] = target: Serine/threonine-protein kinase D2 (Homo sapiens) (UniProt Q9BZL6); conditions: KINOMEscan 353-kinase binding panel, qPCR; PRKD2; at 10 µM; hits give low values
[31] = target: Serine/threonine-protein kinase N2 (Homo sapiens) (UniProt Q16513); conditions: KINOMEscan 353-kinase binding panel, qPCR; PKN2; at 10 µM; hits give low values
[32] = system: GCN2(Kin.Dom.2,S808G); conditions: KINOMEscan 353-kinase binding panel, qPCR, at 10 µM, hits give low values
[33] = system: PIK3CA; conditions: KINOMEscan 353-kinase binding panel, qPCR, at 10 µM, hits give low values
[34] = target: Cyclin-dependent kinase 5 (Homo sapiens) (UniProt Q00535); conditions: KINOMEscan 353-kinase binding panel, qPCR; CDK5; at 10 µM; hits give low values
Cyclin-dependent kinase 5 (Homo sapiens), sequence (Q00535 whole entry, looked up): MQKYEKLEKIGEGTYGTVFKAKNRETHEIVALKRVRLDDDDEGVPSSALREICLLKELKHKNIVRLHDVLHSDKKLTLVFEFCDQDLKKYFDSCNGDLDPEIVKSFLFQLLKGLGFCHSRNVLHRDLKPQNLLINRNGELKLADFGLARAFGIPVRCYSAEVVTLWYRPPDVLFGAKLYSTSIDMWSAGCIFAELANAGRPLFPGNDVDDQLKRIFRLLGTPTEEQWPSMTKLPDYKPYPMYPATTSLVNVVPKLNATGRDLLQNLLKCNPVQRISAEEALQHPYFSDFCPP

[35] = system: ACVR1B; conditions: KINOMEscan 353-kinase binding panel, qPCR, at 10 µM, hits give low values
[36] = system: DCAMKL2; conditions: KINOMEscan 353-kinase binding panel, qPCR, at 10 µM, hits give low values
[37] = system: EPHA1; conditions: KINOMEscan 353-kinase binding panel, qPCR, at 10 µM, hits give low values
[38] = target: 5'-AMP-activated protein kinase catalytic subunit alpha-1 (Homo sapiens) (UniProt Q13131); conditions: KINOMEscan 353-kinase binding panel, qPCR; AMPK-alpha1; at 10 µM; hits give low values
5'-AMP-activated protein kinase catalytic subunit alpha-1 (Homo sapiens), sequence (Q13131 whole entry, looked up): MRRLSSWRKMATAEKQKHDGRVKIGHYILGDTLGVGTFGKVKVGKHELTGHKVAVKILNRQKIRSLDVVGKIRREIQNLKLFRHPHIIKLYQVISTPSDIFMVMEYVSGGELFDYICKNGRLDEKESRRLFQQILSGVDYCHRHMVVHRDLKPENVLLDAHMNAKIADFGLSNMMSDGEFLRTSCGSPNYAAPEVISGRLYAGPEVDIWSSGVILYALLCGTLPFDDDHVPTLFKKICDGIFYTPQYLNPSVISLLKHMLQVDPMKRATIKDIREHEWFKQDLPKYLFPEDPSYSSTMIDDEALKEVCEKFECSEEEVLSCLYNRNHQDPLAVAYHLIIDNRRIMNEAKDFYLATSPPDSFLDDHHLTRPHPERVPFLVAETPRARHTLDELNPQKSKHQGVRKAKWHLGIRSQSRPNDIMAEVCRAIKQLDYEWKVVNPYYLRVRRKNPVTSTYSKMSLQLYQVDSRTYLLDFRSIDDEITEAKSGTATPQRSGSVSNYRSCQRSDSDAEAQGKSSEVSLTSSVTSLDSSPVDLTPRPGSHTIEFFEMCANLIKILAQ

percent of control binding [1]: 100% (inactive)
percent of control binding [2]: 100% (inactive)
percent of control binding [3]: 100% (inactive)
percent of control binding [4]: 100% (inactive)
percent of control binding [5]: 90% (inactive)
percent of control binding [6]: 90% (inactive)
percent of control binding [7]: 89% (inactive)
percent of control binding [8]: 91% (inactive)
percent of control binding [9]: 98% (inactive)
percent of control binding [10]: 100% (inactive)
percent of control binding [11]: 98% (inactive)
percent of control binding [12]: 100% (inactive)
percent of control binding [13]: 86% (inactive)
percent of control binding [14]: 100% (inactive)
percent of control binding [15]: 99% (inactive)
percent of control binding [16]: 81% (inactive)
percent of control binding [17]: 99% (inactive)
percent of control binding [18]: 99% (inactive)
percent of control binding [19]: 79% (inactive)
percent of control binding [20]: 90% (inactive)
percent of control binding [21]: 100% (inactive)
percent of control binding [22]: 100% (inactive)
percent of control binding [23]: 100% (inactive)
percent of control binding [24]: 97% (inactive)
percent of control binding [25]: 84% (inactive)
percent of control binding [26]: 88% (inactive)
percent of control binding [27]: 95% (inactive)
percent of control binding [28]: 47% (inactive)
percent of control binding [29]: 100% (inactive)
percent of control binding [30]: 91% (inactive)
percent of control binding [31]: 100% (inactive)
percent of control binding [32]: 95% (inactive)
percent of control binding [33]: 78% (inactive)
percent of control binding [34]: 76% (inactive)
percent of control binding [35]: 84% (inactive)
percent of control binding [36]: 89% (inactive)
percent of control binding [37]: 100% (inactive)
percent of control binding [38]: 94% (inactive)
Compound: Cc1cc2nc(NCCCO)n(CC(=O)c3cc(C(C)(C)C)c(O)c(C(C)(C)C)c3)c2cc1C
